Assay results as given in patent US11065253B2, “Arylquinazolines” (Merck Patent GmbH, priority 2013, dated 2021).
Where two headings read alike, the source gives them in different places. Blank lines part the entries; values can stand above or below the molecule they belong to.

Test system: phospho-serine 2056 DNA-PK in HCT116 cells
Test: DNA-PK phosphorylation at serine 2056 (cellular), ELISA in bleomycin-treated HCT116 cells
Type: cell-based
Conditions: read-out: IC50 pDNA-PK
Method in brief: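 HCT116 cells grown overnight were co-treated with 10 μM bleomycin and test compound for 6 h at 37 °C. Phospho-DNA-PK was quantified by chemiluminescent ELISA and normalised to total DNA-PKcs signal, with DMSO control as blank.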

[1] = Homo sapiens, HCT-116, cellular DNA-PK phosphorylation at serine 2056, HCT116 cells
[2] = Homo sapiens, HCT-116, phospho-serine 2056 DNA-PK, bleomycin-treated HCT116 cells
[3] = phospho-serine 2056 DNA-PK, bleomycin-treated HCT116 cells
[4] = Homo sapiens, HCT-116, phospho-serine 2056 DNA-PK, bleomycin-treated HCT116 cells, class symbols A-D
[5] = Homo sapiens, HCT-116, 6 h, cellular, HCT116 cells, 10 μM bleomycin, six hours
[6] = cellular DNA-PK phosphorylation at serine 2056, HCT116 cells

Structure (SMILES): Cc1ncc(C(O)c2ccc(F)c(-c3ncnc4cc(N5CCOCC5)ccc34)c2)nc1C (stereo not shown) [Example 314, (5,6-Dimethyl-pyrazin-2-yl)-[4-fluoro-3-(7-morpholin-4-yl-quinazolin-4-yl)-phenyl]methanol]
IC50 [2]: 0.5 to 5 µM

Structure (SMILES): [2H]C1([2H])OC([2H])([2H])C([2H])([2H])N(c2ccc3c(-c4cc(C(O)c5nccnc5OC)c(Cl)cc4F)ncnc3c2)C1([2H])[2H] (stereo not shown) [Example 242, [2-Chloro-4-fluoro-5-[7-(2,2,3,3,5,5,6,6-octadeuterio-morpholin-4-yl)quinazolin-4-yl]phenyl]-(3-methoxypyrazin-2-yl)methanol]
IC50 [3]: < 0.5 µM

Structure (SMILES): NC(=O)C(c1ccc(F)c(-c2ncnc3cc(N4CCOCC4)ccc23)c1)c1nnc(Cl)c2sccc12 (stereo not shown) [Example 291, 2-(7-Chlorothieno-[2,3-d}pyridazin-4-yl)-2-[4-fluoro-3-(7-morpholin-4-yl-quinazolin-4-yl)-phenyl]acetamide]
IC50 [2]: 5 to 10 µM

Structure (SMILES): OC(c1cccc(-c2ncnc3cc(N4CCOCC4)ccc23)c1)c1nccs1 (stereo not shown) [Example 150, [3-(7-Morpholin-4-ylquinazolin-4-yl)-phenyl]thiazol-2-yl-methanol]
IC50 [4]: 5 to 10 µM

Structure (SMILES): O=c1ccc(C(O)c2cc(-c3ncnc4cc(N5CCOCC5)ccc34)c(F)cc2Cl)nn1C1CC1 (stereo not shown) [Example 95, 6-{[2-Chloro-4-fluoro-5-(7-morpholin-4-yl-quinazolin-4-yl)phenyl]-hydroxymethyl}-2-cyclopropyl-2H-pyridazin-3-one]
IC50 [5]: 0.5 to 5 µM

Structure (SMILES): [2H]c1c(N2CCOCC2)cc2ncnc(-c3cc(C(O)c4nccnc4C)ccc3F)c2c1[2H] (stereo not shown) [Example 226, [3-(5,6-Dideuterio-7-morpholino-quinazolin-4-yl)-4-fluorophenyl]-(3-methylpyrazin-2-yl)-methanol]
IC50 [2]: < 0.5 µM

Structure (SMILES): NC(=O)C(c1ccc(F)c(-c2ncnc3cc(N4CCOCC4)ccc23)c1)c1nncc2sccc12 (stereo not shown) [Example 285, 2-[4-Fluoro-3-(7-morpholin-4-yl-quinazolin-4-yl)-phenyl]-2-thieno-[2,3-d}pyridazin-4-yl-acetamide]
IC50 [2]: 10 to 30 µM

Structure (SMILES): OC(c1ccc(F)c(-c2ncnc3cc(N4CCOCC4)ccc23)c1)c1nc(Cl)cnc1Cl (stereo not shown) [Example 35, (3,6-Dichloro-pyrazin-2-yl)-[4-fluoro-3-(7-morpholin-4-yl-quinazolin-4-yl)phenyl]-methanol]
IC50 [5]: < 0.5 µM

Structure (SMILES): NC(=O)c1cncc(C(C(N)=O)c2ccc(F)c(-c3ncnc4cc(N5CCOCC5)ccc34)c2)n1 (stereo not shown) [Example 292, 6-{Carbamoyl-[4-fluoro-3-(7-morpholin-4-yl-quinazolin-4-yl)-phenyl]methyl}-pyrazine-2-carboxylic acid amide]
IC50 [2]: 10 to 30 µM

Structure (SMILES): NC(=O)C(c1cc(-c2ncnc3cc(N4CCOCC4)ccc23)ccc1Cl)c1nccnc1Cl (stereo not shown) [Example 315, 2-[2-Chloro-5-(7-morpholin-4-yl-quinazolin-4-yl)-phenyl]-2-(3-chloro-pyrazin-2-yl)-acetamide]
IC50 [2]: 10 to 30 µM

Structure (SMILES): COc1nccnc1[C@@H](O)c1cc(-c2ncnc3cc(N4CCOCC4)ccc23)c(F)cc1Cl [Example 456, (S)-[2-Chloro-4-fluoro-5-(7-morpholin-4-yl-quinazolin-4-yl)-phenyl]-(3-methoxy-pyrazin-2-yl)-methanol]
IC50 [6]: < 0.5 µM

Structure (SMILES): Cc1cc(C(C(N)=O)c2cc(-c3ncnc4cc(N5CCOCC5)ccc34)c(F)cc2Cl)n(C)c(=O)c1 (stereo not shown) [Example 334, 2-[2-Chloro-4-fluoro-5-(7-morpholin-4-yl-quinazolin-4-yl)-phenyl]-2-(1,4-dimethyl-6-oxo-1,6-dihydropyridin-2-yl)-acetamide]
IC50 [2]: 10 to 30 µM

Structure (SMILES): CNC(=O)C(c1cc(-c2ncnc3cc(N4CCOCC4)ccc23)c(F)cc1Cl)c1nccnc1OC (stereo not shown) [Example 229, 2-[2-Chloro-4-fluoro-5-(7-morpholin-4-yl-quinazolin-4-yl)-phenyl]-2-(3-methoxypyrazin-2-yl)-N-methyl-acetamide]
IC50 [2]: 0.5 to 5 µM

Structure (SMILES): CCOc1ccc(C(O)c2ccc(F)c(-c3ncnc4cc(N5CCOCC5)ccc34)c2)nn1 (stereo not shown) [Example 134, (6-Ethoxy-pyridazin-3-yl)-[4-fluoro-3-(7-morpholin-4-yl-quinazolin-4-yl)-phenyl] methanol]
IC50 [4]: 0.5 to 5 µM

Structure (SMILES): OC(c1ccc(F)c(-c2ncnc3cc(N4CCOCC4)ccc23)c1)c1nccnc1OC(F)F (stereo not shown) [Example 464, (3-Difluoromethoxy-pyrazin-2-yl)-[4-fluoro-3-(7-morpholin-4-yl-quinazolin-4-yl)-phenyl]methanol]
IC50 [6]: 0.5 to 5 µM

Structure (SMILES): COc1ccc(C(O)c2cc(-c3ncnc4cc(N5CCOCC5)ccc34)c(F)cc2Cl)nn1 (stereo not shown) [Example 137, [2-Chloro-4-fluoro-5-(7-morpholin-4-ylquinazolin-4-yl)-phenyl]-(6-methoxy-pyridazin-3-yl)-methanol]
IC50 [4]: 0.5 to 5 µM

Structure (SMILES): COc1ccc(C(O)c2ccc(F)c(-c3ncnc4cc(N5CCOCC5)ccc34)c2)nn1 (stereo not shown) [Example 74, [4-Fluoro-3-(7-morpholin-4-yl-quinazolin-4-yl)phenyl]-(6-methoxypyridazin-3-yl)methanol]
IC50 [5]: < 0.5 µM

Structure (SMILES): NC(=O)C(c1ccc(F)c(-c2ncnc3cc(N4CCOCC4)ccc23)c1)c1cncc(F)c1Cl (stereo not shown) [Example 322, 2-(4-Chloro-5-fluoro-pyridin-3-yl)-2-[4-fluoro-3-(7-morpholin-4-yl-quinazolin-4-yl)-phenyl]acetamide]
IC50 [2]: 0.5 to 5 µM

Structure (SMILES): COc1nnc(C(O)c2cc(-c3ncnc4cc(N5CCOCC5)ccc34)c(F)cc2Cl)cc1C (stereo not shown) [Example 110, [2-Chloro-4-fluoro-5-(7-morpholin-4-yl-quinazolin-4-yl)-phenyl]-(6-methoxy-5-methylpyridazin-3-yl)methanol]
IC50 [4]: 0.5 to 5 µM

Structure (SMILES): COCCOc1ccc(C(O)c2cc(-c3ncnc4cc(N5CCOCC5)ccc34)c(F)cc2Cl)nn1 (stereo not shown) [Example 112, [2-Chloro-4-fluoro-5-(7-morpholin-4-yl-quinazolin-4-yl)-phenyl]-[6-(2-methoxyethoxy)-pyridazin-3-yl]-methanol]
IC50 [4]: 0.5 to 5 µM

Structure (SMILES): COc1nccnc1C(C(N)=O)c1cc(-c2ncnc3cc(N4CCOCC4)ccc23)c(F)cc1Cl (stereo not shown) [Example 320, 2-[2-Chloro-4-fluoro-5-(7-morpholin-4-yl-quinazolin-4-yl)-phenyl]-2-(3-methoxy-pyrazin-2-yl)acetamide]
IC50 [2]: 0.5 to 5 µM

Results, then the molecule that gave them:

IC50 [1]: < 0.5 µM
Structure (SMILES): OC(c1ccc(F)c(-c2ncnc3cc(N4CCOCC4)ccc23)c1)c1ncccc1OC(F)(F)F (stereo not shown) [Example 475, [4-Fluoro-3-(7-morpholin-4-yl-quinazolin-4-yl)-phenyl]-(3-trifluoro-methoxypyridin-2-yl)-methanol]

IC50 [1]: < 0.5 µM
Structure (SMILES): COc1ccc(C(O)c2cc(-c3ncnc4cc(N5CCOCC5)ccc34)ccc2Cl)nn1 (stereo not shown) [Example 458, [2-Chloro-5-(7-morpholin-4-yl-quinazolin-4-yl)-phenyl]-(6-methoxy-pyridazin-3-yl)-methanol]

IC50 [1]: < 0.5 µM
Structure (SMILES): COc1nccnc1C(O)c1cc(-c2ncnc3cc(N4CCOCC4)ccc23)c(F)cc1F (stereo not shown) [Example 453]

IC50 [6]: 0.5 to 5 µM
Structure (SMILES): Cc1cncnc1C(O)c1cc(-c2ncnc3cc(N4CCOCC4)ccc23)ccc1Cl (stereo not shown) [Example 419, [2-Chloro-5-(7-morpholin-4-yl-quinazolin-4-yl)-phenyl]-(5-methyl-pyrimidin-4-yl)-methanol]

IC50 [1]: 5 to 10 µM
Structure (SMILES): Cn1cnc2c(C(O)c3ccc(F)c(-c4ncnc5cc(N6CCOCC6)ccc45)c3)ncnc21 (stereo not shown) [Example 420, [4-Fluoro-3-(7-morpholin-4-yl-quinazolin-4-yl)-phenyl]-(9-methyl-9H-purin-6-yl)-methanol]

IC50 [2]: 0.5 to 5 µM
Structure (SMILES): OC(c1cc(-c2ncnc3cc(N4CCOCC4)ccc23)ccc1Cl)c1nccn2cccc12 (stereo not shown) [Example 361, [2-Chloro-5-(7-morpholin-4-yl-quinazolin-4-yl)-phenyl]pyrrolo[1,2-a]-pyrazin-1-ylmethanol]

IC50 [3]: < 0.5 µM
Structure (SMILES): Cn1c(C(O)c2cc(-c3ncnc4cc(N5CCOCC5)ccc34)ccc2Cl)cccc1=O (stereo not shown) [Example 364, 6-{[2-Chloro-5-(7-morpholin-4-yl-quinazolin-4-yl)-phenyl]hydroxy-methyl}-1-methyl-1H-pyridin-2-one (Ena 1)]

IC50 [6]: < 0.5 µM
Structure (SMILES): COc1nccnc1C(O)c1cc(-c2ncnc3cc(N4CCOCC4)ccc23)c(F)cc1F (stereo not shown) [Example 467, [2,4-Difluoro-5-(7-morpholin-4-yl-quinazolin-4-yl)-phenyl]-(3-methoxy-pyrazin-2-yl)-methanol]

IC50 [1]: 0.5 to 5 µM
Structure (SMILES): Cn1cnc2c(C(O)c3cc(-c4ncnc5cc(N6CCOCC6)ccc45)c(F)cc3F)ncnc21 (stereo not shown) [Example 421, [2,4-Difluoro-5-(7-morpholin-4-yl-quinazolin-4-yl)-phenyl]-(9-methyl-9H-purin-6-yl)-methanol]

IC50 [1]: 0.5 to 5 µM
Structure (SMILES): Cc1cncnc1C(C(N)=O)c1cc(-c2ncnc3cc(N4CCOCC4)ccc23)ccc1Cl (stereo not shown) [Example 377, 2-[2-Chloro-5-(7-morpholin-4-yl-quinazolin-4-yl)-phenyl]-2-(5-methyl-pyrimidin-4-yl)-acetamide (Ena 2)]

IC50 [1]: 0.5 to 5 µM
Structure (SMILES): Cn1c(C(O)c2cc(-c3ncnc4cc(N5CCOCC5)ccc34)c(F)cc2F)cccc1=O (stereo not shown) [Example 380, 6-{[2,4-Difluoro-5-(7-morpholin-4-yl-quinazolin-4-yl)-phenyl]hydroxy-methyl}-1-methyl-1H-pyridin-2-one (Ena 2)]

IC50 [2]: 10 to 30 µM
Structure (SMILES): OC(c1ccc(F)c(-c2ncnc3cc(N4CCOCC4)ccc23)c1)c1nccn2cnnc12 (stereo not shown) [Example 351, [4-Fluoro-3-(7-morpholin-4-yl-quinazolin-4-yl)-phenyl]-[1,2,4]-triazolo[4,3-a]-pyrazin-8-ylmethanol]

IC50 [1]: < 0.5 µM
Structure (SMILES): OC(c1cc(-c2ncnc3cc(N4CCOCC4)ccc23)c(F)cc1F)c1ncnc2ccsc12 (stereo not shown) [Example 439, [2,4-Difluoro-5-(7-morpholin-4-yl-quinazolin-4-yl)-phenyl]thieno[3,2-d}-pyrimidin-4-yl-methanol]
